Measured values from US20240228504A1, “SUBSTITUTED TRICYCLIC AMIDES, ANALOGUES THEREOF, AND METHODS USING SAME” (Arbutus Biopharma Corporation, priority 2020, published 2024).
pEC50: −log10 of the molar value.

Each compound was assayed on HBV rcDNA in HepDE19 cells (assay: HepDE19 assay with bDNA quantitation of HBV rcDNA). Settings: HepDE19 assay, inhibition of rcDNA formation, bDNA quantitation; read-out: DE-19bDNA EC50.
Type: cell-based, hepatitis B virus
Work on CN(C(=O)c1cc2cc(F)ccc2[nH]1)C1COCc2[nH]c(=O)c3cc(F)ccc3c21 (single isomer, unassigned) [Compound 30, 5-Fluoro-N-(8-fluoro-6-oxo-1,4,5,6-tetrahydro-2H-pyrano[3,4-c]isoquinolin-1-yl)-N-methyl-1H-indole-2-carboxamide] yielded a pEC50 of 8.00. In the case of CN(C(=O)c1ccc2c(c1)CCC2)C1CNCc2[nH]c(=O)c3cc(F)c(F)cc3c21 (single isomer, unassigned) [Compound 472, N-(8,9-difluoro-6-oxo-1,2,3,4,5,6-hexahydrobenzo[c][1,7]naphthyridin-1-yl)-N-methyl-2,3-dihydro-1H-indene-5-carboxamide], the pEC50 was 7.40. With CN(C(=O)c1cc2ccc(F)cc2[nH]1)C1COCc2[nH]c(=O)c3cc(F)c(F)cc3c21 (single isomer, unassigned) [Compound 26, N-(8,9-Difluoro-6-oxo-1,4,5,6-tetrahydro-2H-pyrano[3,4-c]isoquinolin-1-yl)-6-fluoro-N-methyl-1H-indole-2-carboxamide] the pEC50 was 8.00. CN(C(=O)c1cc2cc(F)c(C(F)F)cc2[nH]1)C1CNCc2[nH]c(=O)c3cc(F)c(F)cc3c21 (single isomer, unassigned) [Compound 220, N-(8,9-Difluoro-6-oxo-1,2,3,4,5,6-hexahydrobenzo[c][1,7]naphthyridin-1-yl)-6-(difluoromethyl)-5-fluoro-N-methyl-1H-indole-2-carboxamide] gave a pEC50 of 5.61. In the case of CN(C(=O)c1cc2cccc(F)c2[nH]1)C1COCc2[nH]c(=O)c3cc(F)ccc3c21 (single isomer, unassigned) [Compound 33, 7-Fluoro-N-(8-fluoro-6-oxo-1,4,5,6-tetrahydro-2H-pyrano[3,4-c]isoquinolin-1-yl)-N-methyl-1H-indole-2-carboxamide], the pEC50 was 5.74. Work on CN(C(=O)c1cc2c(Cl)cccn2c1)C1CNCc2[nH]c(=O)c3cc(F)c(F)cc3c21 (single isomer, unassigned) [Compound 508, 8-Chloro-N-(8,9-Difluoro-6-oxo-1,2,3,4,5,6-hexahydrobenzo[c][1,7]naphthyridin-1-yl)-N-methylindolizine-2-carboxamide] yielded a pEC50 of 4.94. CN(C(=O)c1cc2ccccn2c1)C1CNCc2[nH]c(=O)c3cc(F)c(F)cc3c21 (single isomer, unassigned) [Compound 507, N-(8,9-Difluoro-6-oxo-1,2,3,4,5,6-hexahydrobenzo[c][1,7]naphthyridin-1-yl)-N-methylindolizine-2-carboxamide] gave a pEC50 of 7.22. With CN(C(=O)c1cc2cc(F)c(F)cc2[nH]1)C1CNCc2[nH]c(=O)c3cc(F)c(F)cc3c21 (single isomer, unassigned) [Compound 116, N-(8,9-Difluoro-6-oxo-1,2,3,4,5,6-hexahydrobenzo[c][1,7]naphthyridin-1-yl)-5,6-difluoro-N-methyl-1H-indole-2-carboxamide] the pEC50 was 5.89. CN(C(=O)c1cc2c(Cl)cccc2[nH]1)C1COCc2[nH]c(=O)c3cc(F)ccc3c21 (single isomer, unassigned) [Compound 425, 4-Chloro-N-(8-fluoro-6-oxo-1,4,5,6-tetrahydro-2H-pyrano[3,4-c]isoquinolin-1-yl)-N-methyl-1H-indole-2-carboxamide] showed a pEC50 of 7.70.

Same assay, conditions: Hepatitis B virus, HepDE19, HepDE19 assay, inhibition of rcDNA formation, bDNA quantitation; read-out: DE-19bDNA EC50
CN(C(=O)c1cc2cc(F)c(F)cc2[nH]1)[C@@H]1CCCc2[nH]c(=O)c3cc(F)ccc3c21 [Compound 490, (R)-5,6-difluoro-N-(8-fluoro-6-oxo-1,2,3,4,5,6-hexahydrophenanthridin-1-yl)-N-methyl-1H-indole-2-carboxamide] showed a pEC50 of 7.70. With Cc1cc(F)cc2[nH]c(C(=O)N(C)[C@@H]3CCCc4[nH]c(=O)c5cc(F)ccc5c43)cc12 [Compound 492, (R)-6-fluoro-N-(8-fluoro-6-oxo-1,2,3,4,5,6-hexahydrophenanthridin-1-y1)-N,4-dimethyl-1H-indole-2-carboxamide] the pEC50 was 7.52. With CN(C(=O)c1ccn2c(Cl)ccc2c1)[C@@H]1COCc2[nH]c(=O)c3cc(F)c(F)cc3c21 [Compound 373, (S)-3-Chloro-N-(8,9-difluoro-6-oxo-1,4,5,6-tetrahydro-2H-pyrano[3,4-c]isoquinolin-1-yl)-N-methylindolizine-7-carboxamide] the pEC50 was 8.00. CN(C(=O)c1cc2cc(F)c(C(F)F)cc2[nH]1)[C@@H]1COC(O)c2[nH]c(=O)c3cc(F)c(F)cc3c21 (stereo partly drawn) [Compound 488, N-((1S)-8,9-Difluoro-4-hydroxy-6-oxo-1,4,5,6-tetrahydro-2H-pyrano[3,4-c]isoquinolin-1-yl)-6-(difluoromethyl)-5-fluoro-N-methyl-1H-indole-2-carboxamide] was tested, and the pEC50 was 8.00. With CN(C(=O)c1cnc(C(F)(F)F)c(F)c1)[C@@H]1COCc2[nH]c(=O)c3cc(F)c(F)cc3c21 [Compound 412, (S)-N-(8,9-Difluoro-6-oxo-1,4,5,6-tetrahydro-2H-pyrano[3,4-c]isoquinolin-1-yl)-5-fluoro-N-methyl-6-(trifluoromethyl)nicotinamide] the pEC50 was 7.52. For CN(C(=O)C1(O)Cc2ccccc2C1)[C@@H]1COCc2[nH]c(=O)c3cc(F)c(F)cc3c21 [Compound 275, (S)-N-(8,9-Difluoro-6-oxo-1,4,5,6-tetrahydro-2H-pyrano[3,4-c]isoquinolin-1-yl)-2-hydroxy-N-methyl-2,3-dihydro-1H-indene-2-carboxamide], the pEC50 was 5.42. CN(C(=O)c1cc2nc(C(F)(F)F)ccc2[nH]1)[C@@H]1COCc2[nH]c(=O)c3cc(F)c(F)cc3c21 [Compound 219, (S)-N-(8,9-difluoro-6-oxo-1,4,5,6-tetrahydro-2H-pyrano[3,4-c]isoquinolin-1-yl)-N-methyl-5-(trifluoromethyl)-1H-pyrrolo[3,2-b]pyridine-2-carboxamide] showed a pEC50 of 5.84. For CN([C@@H]1COCc2[nH]c(=O)c3cc(F)c(F)cc3c21)S(=O)(=O)c1ccc(F)c(Cl)c1 [Compound 143, (S)-3-Chloro-N-(8,9-difluoro-6-oxo-1,4,5,6-tetrahydro-2H-pyrano[3,4-c]isoquinolin-1-yl)-4-fluoro-N-methylbenzenesulfonamide], the pEC50 was 4.74. CN(C(=O)c1cc2c(Cl)cccc2[nH]1)[C@@H]1COCc2[nH]c(=O)c3cc(F)c(F)cc3c21 [Compound 347, (S)-4-Chloro-N-(8,9-difluoro-6-oxo-1,4,5,6-tetrahydro-2H-pyrano[3,4-c]isoquinolin-1-yl)-N-methyl-1H-indole-2-carboxamide] showed a pEC50 of 8.00. CN(C(=O)c1cc2c(NS(C)(=O)=O)cc(F)cc2[nH]1)[C@@H]1COCc2[nH]c(=O)c3cc(F)c(F)cc3c21 [Compound 362, (S)-N-(8,9-Difluoro-6-oxo-1,4,5,6-tetrahydro-2H-pyrano[3,4-c]isoquinolin-1-yl)-6-fluoro-N-methyl-4-(methylsulfonamido)-1H-indole-2-carboxamide] gave a pEC50 of 4.85. For CN(C(=O)c1cnc2ccccc2c1)[C@@H]1COCc2[nH]c(=O)c3cc(F)c(F)cc3c21 [Compound 71, (S)-N-(8,9-Difluoro-6-oxo-1,4,5,6-tetrahydro-2H-pyrano[3,4-c]isoquinolin-1-yl)-N-methylquinoline-3-carboxamide], the pEC50 was 6.48. CN(C(=O)c1ccc2cncn2c1)[C@@H]1COCc2[nH]c(=O)c3cc(F)c(F)cc3c21 [Compound 299, (S)-N-(8,9-Difluoro-6-oxo-1,4,5,6-tetrahydro-2H-pyrano[3,4-c]isoquinolin-1-yl)-N-methylimidazo[1,5-a]pyridine-6-carboxamide] showed a pEC50 of 6.44. Compound COc1c2ccc(C(=O)N(C)[C@@H]3COCc4[nH]c(=O)c5cc(F)c(F)cc5c43)cc2nn1C(F)F [Compound 367, (S)-N-(8,9-Difluoro-6-oxo-1,4,5,6-tetrahydro-2H-pyrano[3,4-c]isoquinolin-1-yl)-2-(difluoromethyl)-3-methoxy-N-methyl-2H-indazole-6-carboxamide] has a pEC50 of 5.34. With CN(C(=O)c1cc2occc2[nH]1)[C@@H]1COCc2[nH]c(=O)c3cc(F)c(F)cc3c21 [Compound 314, (S)-N-(8,9-Difluoro-6-oxo-1,4,5,6-tetrahydro-2H-pyrano[3,4-c]isoquinolin-1-yl)-N-methyl-4H-furo[3,2-b]pyrrole-5-carboxamide] the pEC50 was 6.82. CN(C(=O)c1cc2ccc(Br)cn2c1)[C@@H]1COCc2[nH]c(=O)c3cc(F)c(F)cc3c21 [Compound 348, (S)-6-Bromo-N-(8,9-difluoro-6-oxo-1,4,5,6-tetrahydro-2H-pyrano[3,4-c]isoquinolin-1-yl)-N-methylindolizine-2-carboxamide] gave a pEC50 of 7.40. Compound CN(C(=O)c1cc2oc(Cl)cc2[nH]1)[C@@H]1COCc2[nH]c(=O)c3cc(F)c(F)cc3c21 [Compound 332, (S)-2-Chloro-N-(8,9-difluoro-6-oxo-1,4,5,6-tetrahydro-2H-pyrano[3,4-c]isoquinolin-1-yl)-N-methyl-4H-furo[3,2-b]pyrrole-5-carboxamide] has a pEC50 of 7.40. With CN(C(=O)c1cc(F)c(C(F)(F)F)c(F)c1)[C@@H]1COCc2[nH]c(=O)c3cc(F)c(F)cc3c21 [Compound 139, (S)-N-(8,9-Difluoro-6-oxo-1,4,5,6-tetrahydro-2H-pyrano[3,4-c]isoquinolin-1-yl)-3,5-difluoro-N-methyl-4-(trifluoromethyl)benzamide] the pEC50 was 8.00. CN(C(=O)[C@@H](O)c1ccccc1)[C@@H]1COCc2[nH]c(=O)c3cc(F)c(F)cc3c21 [Compound 95, (S)-N-((S)-8,9-Difluoro-6-oxo-1,4,5,6-tetrahydro-2H-pyrano[3,4-c]isoquinolin-1-yl)-2-hydroxy-N-methyl-2-phenylacetamide] showed a pEC50 of 4.62. For CN(C(=O)c1cc2cc(C(F)(F)F)ncc2[nH]1)[C@@H]1COCc2[nH]c(=O)c3cc(F)c(F)cc3c21 [Compound 251, (S)-N-(8,9-difluoro-6-oxo-1,4,5,6-tetrahydro-2H-pyrano[3,4-c]isoquinolin-1-yl)-N-methyl-5-(trifluoromethyl)-1H-pyrrolo[2,3-c]pyridine-2-carboxamide], the pEC50 was 6.64. With CN(C(=O)C(N)c1ccc(Cl)cc1)[C@@H]1COCc2[nH]c(=O)c3cc(F)c(F)cc3c21 (single isomer, unassigned) [Compound 199] the pEC50 was 4.83.
